Like-named read-outs stand apart in the source and are kept apart here.
Assays:
[1] = tested on: Mycosphaerella graminicola; Anamorph: Septoria tritici; assay: Leaf Blotch of Wheat (SEPTTR) disease control; type: in vivo; details: for pest or weed control at 121.5 g/ha / pest or weed control at 100 ppm: Zymoseptoria tritici; for pest or weed control at 121.5 g/ha: rate 121.5 g/H
Method in brief: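 Preventive or curative tests: first-leaf Yuma wheat, sprayed to run-off, inoculated with S. tritici, dew chamber at 100% humidity, then greenhouse at 20° C. Severity on the first leaf is scored on a 0–100% scale and expressed as % control against untreated plants.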

[2] = tested on: Puccinia triticina; Synonym: Puccinia recondite f. Sp. Tritici; assay: Wheat Brown Rust (PUCCRT) disease control; type: in vivo; details: Puccinia triticina, topical; for pest or weed control at 121.5 g/ha: rate 121.5 g/H; for pest or weed control at 100 ppm: rate 100 ppm
Method in brief: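 Brown rust on first-leaf Yuma wheat: spore inoculation before or after spray application (acetone/Triton X-100 solution, or EC with Trycol in track spray), overnight 100% RH at 22 °C, disease developed at 24 °C. Severity scored 0–100% and converted to percent control against untreated.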

[3] = tested on: Phakopsora pachyrhizi; assay: Asian Soybean Rust (PHAKPA) disease control; type: in vivo; details: Phakopsora pachyrhizi, topical
Protocol: Technical grades of materials were dissolved in acetone, which were then mixed with nine volumes of water containing 0.011% Tween 20. The fungicide solutions were applied onto soybean seedlings using an automated booth sprayer to run-off. All sprayed plants were allowed to air dry prior to further handling.
Soybean plants (variety Williams 82) were grown in soil-less Metro mix, with one plant per pot. Two weeks old seedlings were used for testing. Plants were inoculated either 3 days prior to or 1 day after fungicide treatments. Plants were incubated for 24 h in a dark dew room at 22° C. and 100% RH then transferred to a growth room at 23° C. for disease to develop. Disease severity was assessed on the sprayed leaves.

[4] = 24 h, 1 Day Protectant, read-out: SEPTTR 1 DP disease control
[5] = 72 h, 3 Day Curative, read-out: SEPTTR 3 DC disease control
[6] = 24 h, 1 Day Protectant, read-out: PUCCRT 1 DP disease control
[7] = 72 h, 3 Day Curative, read-out: PUCCRT 3 DC disease control
[8] = 24 h, 1 Day Protectant, read-out: Disease Control PHAKPA 1DP
[9] = 72 h, 3 Day Curative, read-out: Disease Control PHAKPA 3DC
[10] = 24 h, 1 Day Protectant, rate 100 ppm, read-out: SEPTTR 1 DP disease control
[11] = 72 h, 3 Day Curative, rate 100 ppm, read-out: SEPTTR 3 DC disease control

Row | SMILES | pest or weed control at 121.5 g/ha [1, 4] | pest or weed control at 121.5 g/ha [1, 5] | pest or weed control at 121.5 g/ha [2, 6] | pest or weed control at 121.5 g/ha [2, 7] | pest or weed control at 25 ppm [3, 8] | pest or weed control at 25 ppm [3, 9] | pest or weed control at 100 ppm [1, 10] | pest or weed control at 100 ppm [1, 11] | pest or weed control at 100 ppm [2, 6] | pest or weed control at 100 ppm [2, 7] | melting point | SEPTTR 3 DC disease control ([1]; 3 Day Curative, rate 100 ppm)
1 | COc1ccnc(C(=O)N[C@H]2CCC[C@H](C)[C@@H](Oc3ccccc3)[C@H](C)OC2=O)c1OC(C)=O [Compound F76] | 80 to 100% | 80 to 100% | 80 to 100% | 80 to 100% | 80 to 100% | 80 to 100% | – | – | – | – | – | –
2 | COc1ccnc(C(=O)N[C@H]2CCC[C@H](CCC(C)C)[C@@H](OCC3CC3)[C@H](C)OC2=O)c1OC(C)=O [Compound F63] | 80 to 100% | 80 to 100% | 80 to 100% | 80 to 100% | 80 to 100% | 80 to 100% | 80 to 100% | 80 to 100% | 80 to 100% | 80 to 100% | – | –
3 | CCOCC(=O)OCOc1c(OC)ccnc1C(=O)N[C@H]1CCC[C@H](CC)[C@@H](Oc2ccccc2)[C@H](C)OC1=O [Compound F189] | 80 to 100% | 80 to 100% | 80 to 100% | 80 to 100% | 80 to 100% | 80 to 100% | 80 to 100% | 80 to 100% | 80 to 100% | 80 to 100% | – | –
4 | COc1ccnc(C(=O)N[C@H]2CCC[C@H](CC3CCCC3)[C@@H](OC(=O)C(C)C)[C@H](C)OC2=O)c1OCOC(C)=O [Compound F121] | 80 to 100% | 80 to 100% | 80 to 100% | 80 to 100% | 80 to 100% | 0 to 80% | 80 to 100% | 80 to 100% | 80 to 100% | 80 to 100% | – | –
5 | COc1ccnc(C(=O)N[C@H]2CCC[C@H](CCC(C)C)[C@@H](OCC3CC3)[C@H](C)OC2=O)c1OCOC(=O)C(C)C [Compound F149] | 80 to 100% | 80 to 100% | 80 to 100% | 80 to 100% | 80 to 100% | 0 to 80% | 80 to 100% | 80 to 100% | 80 to 100% | 80 to 100% | – | –
6 | COc1ccnc(C(=O)N[C@H]2CCC[C@H](CCC(C)C)[C@@H](OCC3CC3)[C@H](C)OC2=O)c1OCOC(C)=O [Compound F91] | 80 to 100% | 80 to 100% | 80 to 100% | 80 to 100% | 80 to 100% | 80 to 100% | 80 to 100% | 80 to 100% | 80 to 100% | 80 to 100% | – | –
7 | COc1ccnc(C(=O)N[C@H]2CCC[C@H](C)[C@@H](Oc3ccccc3)[C@H](C)OC2=O)c1OCOC(=O)C(C)C [Compound F155] | 80 to 100% | 80 to 100% | 80 to 100% | 80 to 100% | 80 to 100% | 80 to 100% | 80 to 100% | 80 to 100% | 80 to 100% | 80 to 100% | – | –
8 | Cc1ccc(C[C@H]2CCC[C@H](N)C(=O)O[C@@H](C)[C@@H]2OCC2CC2)cc1.Cl | – | – | – | – | – | – | – | – | – | – | 210 °C (dec.) | –
9 | COCN(C(=O)OC(C)(C)C)[C@H]1CCC[C@H](Cc2ccc(F)cc2F)[C@@H](OC(=O)c2ccco2)[C@H](C)OC1=O [Compound F260] | – | – | – | – | – | – | – | – | – | – | 45 to 48 °C | –
10 | COc1ccnc(C(=O)N[C@H]2CCC[C@H](C)[C@@H](Oc3ccccc3)[C@H](C)OC2=O)c1OCOC(C)=O [Compound F124] | 80 to 100% | 80 to 100% | 80 to 100% | 80 to 100% | 80 to 100% | 80 to 100% | 80 to 100% | 80 to 100% | 80 to 100% | 80 to 100% | – | –
11 | Cc1ccc(C[C@H]2CCC[C@H](NC(=O)OC(C)(C)C)C(=O)O[C@@H](C)[C@@H]2OCc2ccccc2)cc1 [Compound F229] | – | – | – | – | – | – | – | – | – | – | 108 to 110 °C | –
12 | CC(C)CO[C@@H]1[C@@H](Cc2ccc(F)cc2F)CCC[C@H](N)C(=O)O[C@H]1C.Cl | – | – | – | – | – | – | – | – | – | – | 67 to 73 °C | –
13 | CCOCC(=O)OCOc1c(OC)ccnc1C(=O)N[C@H]1CCC[C@H](CCOC)[C@@H](OCC(C)C)[C@H](C)OC1=O [Compound F187] | 80 to 100% | 80 to 100% | 80 to 100% | 80 to 100% | 80 to 100% | 80 to 100% | 80 to 100% | 80 to 100% | 80 to 100% | 80 to 100% | – | –
14 | CCOCC(=O)OCOc1c(OC)ccnc1C(=O)N[C@H]1CCC[C@H](CCC(C)C)[C@@H](OCC2CC2)[C@H](C)OC1=O [Compound F160] | 80 to 100% | 80 to 100% | 80 to 100% | 80 to 100% | 80 to 100% | 80 to 100% | 80 to 100% | 80 to 100% | 80 to 100% | 80 to 100% | – | –
15 | COCC[C@H]1CCC[C@H](NC(=O)c2nccc(OC)c2OCOC(C)=O)C(=O)O[C@@H](C)[C@@H]1OCC(C)C [Compound F132] | 80 to 100% | 80 to 100% | 80 to 100% | 80 to 100% | 80 to 100% | 80 to 100% | 80 to 100% | 80 to 100% | 80 to 100% | 80 to 100% | – | –
16 | C=CCO[C@@H]1[C@@H](Cc2ccc(F)cc2)CCC[C@H](NC(=O)c2nccc(OC)c2OCOC(=O)COCC)C(=O)O[C@H]1C [Compound F166] | 80 to 100% | 80 to 100% | 80 to 100% | 80 to 100% | 80 to 100% | 0 to 80% | 80 to 100% | 80 to 100% | 80 to 100% | 80 to 100% | – | –
17 | COc1ccnc(C(=O)N[C@H]2CCC[C@H](CCC(C)C)[C@@H](OCCCC(F)(F)F)[C@H](C)OC2=O)c1OCOC(C)=O [Compound F93] | 80 to 100% | 80 to 100% | 80 to 100% | 0 to 80% | 80 to 100% | 0 to 80% | 80 to 100% | 80 to 100% | 80 to 100% | 80 to 100% | – | –
18 | COc1ccnc(C(=O)N[C@H]2CCC[C@H](C)[C@@H](OCc3ccccc3)[C@H](C)OC2=O)c1OCOC(C)=O [Compound F125] | 80 to 100% | 80 to 100% | 80 to 100% | 80 to 100% | – | – | 80 to 100% | 80 to 100% | 80 to 100% | 80 to 100% | – | –
19 | CCCO[C@@H]1[C@@H](Cc2ccc(F)cc2)CCC[C@H](NC(=O)c2nccc(OC)c2O)C(=O)O[C@H]1C [Compound F13] | – | – | – | – | – | – | 80 to 100% | 80 to 100% | – | 0 to 80% | – | –
20 | COc1ccnc(C(=O)N[C@H]2CCC[C@H](Cc3ccc(C)cc3)[C@@H](OCCCC(F)(F)F)[C@H](C)OC2=O)c1O [Compound F10] | 80 to 100% | 80 to 100% | 80 to 100% | 0 to 80% | – | – | 80 to 100% | – | 80 to 100% | 80 to 100% | – | A (80-100)
